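1) Cells in 96-well plates. 2) Compound, 48 h, 5 concentrations. 3) Linear interpolation between surrounding doses. 4) Unreached endpoint = highest concentration. Here, GI50 denotes the concentration required for 50% inhibition of growth. TGI denotes the concentration required for complete inhibition of growth.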
How the values were obtained:
Assay in all cases: NCI tumour cell line growth inhibition, 48 h
[1] = test system: A498 renal
[2] = test system: NCI-H522 lung
[3] = test system: HCT-15 colon
[4] = test system: PC-3 prostate
[5] = test system: U251 CNS
[6] = test system: SK-MEL-2 melanoma
[7] = test system: SK-OV-3 ovarian
[8] = test system: NCI-H460 lung
[9] = test system: LOX IMVI melanoma
[10] = test system: SR leukemia

| SMILES | GI50 [1] | TGI [1] | GI50 [2] | TGI [2] | GI50 [3] | TGI [3] | GI50 [4] | TGI [4] | GI50 [5] | TGI [5] | GI50 [6] | TGI [6] | GI50 [7] | TGI [7] | GI50 [8] | TGI [8] | GI50 [9] | TGI [9] | GI50 [10] | TGI [10] |
| --- | --- | --- | --- | --- | --- | --- | --- | --- | --- | --- | --- | --- | --- | --- | --- | --- | --- | --- | --- | --- |
| CO/N=C(/C)COc1ccc2c(c1)oc(=O)c1cc(OC)ccc12 | > 100 µM | > 100 µM | > 100 µM | > 100 µM | > 100 µM | > 100 µM | > 100 µM | > 100 µM | > 100 µM | > 100 µM | > 100 µM | > 100 µM | > 100 µM | > 100 µM | > 100 µM | > 100 µM | > 100 µM | > 100 µM | – | – |
| COc1cc(/C=C2\CCC/C(=C\c3cc(CN4CCCC4)c(O)c(OC)c3)C2=O)cc(CN2CCCC2)c1O | 2.94 µM | 8.54 µM | 2.5 µM | 7.92 µM | 2.34 µM | 7.87 µM | 3.88 µM | 16.6 µM | 3.03 µM | 11.2 µM | 5.09 µM | 19.5 µM | 4.58 µM | 16.5 µM | 2.97 µM | 10.6 µM | 1.74 µM | 3.36 µM | 2.56 µM | 11.8 µM |
| CC[O-].CC[O-].O=C1C=C([O-])C(=O)c2ccccc21.O=C1C=C([O-])C(=O)c2ccccc21.[Ti+4] | 22.5 µM | > 60.9 µM | > 40.1 µM | > 100 µM | 60.6 µM | > 100 µM | – | – | > 100 µM | > 100 µM | 9.89 µM | > 100 µM | > 100 µM | > 100 µM | 7.76 µM | > 92.9 µM | 5.25 µM | > 100 µM | – | – |
| CC(=O)OC(COc1ccc2c(c1)[n+]([O-])nc(N)[n+]2[O-])CN1CCCCC1 (stereo not given) | – | 16.5 µM | – | 38.7 µM | – | 31.6 µM | – | – | – | 43 µM | – | 26.4 µM | – | – | – | 21.8 µM | – | – | – | 70.1 µM |
| COc1ccc2nc3cc([N+](=O)[O-])ccc3c(NCCO)c2c1 | 12.7 µM | 32.7 µM | 1.39 µM | 2.84 µM | 7.24 µM | – | – | 30 µM | 1.44 µM | – | – | – | 2.78 µM | 14.9 µM | 1.66 µM | 4.9 µM | 2.51 µM | 9.18 µM | 3.13 µM | – |
| CC1=C2CC[C@@]3(C)C(=CCC3O)C2(C)CCC1=O (stereo not given in full) | – | > 100 µM | – | > 100 µM | – | > 100 µM | – | – | – | > 100 µM | – | – | – | > 100 µM | – | > 100 µM | – | > 100 µM | – | > 100 µM |
| CC(=O)Oc1ccc2c(=O)c(C(C)=O)coc2c1 | – | > 100 µM | – | > 100 µM | – | > 100 µM | – | – | – | > 100 µM | – | > 100 µM | – | – | – | > 100 µM | – | > 100 µM | – | > 100 µM |
| Nc1nc(N)c2cc(S(=O)(=O)c3ccc4ccccc4c3)ccc2n1 | – | – | – | > 93 µM | – | > 100 µM | – | > 100 µM | – | 23.6 µM | – | > 77.8 µM | – | > 81.8 µM | – | > 100 µM | – | > 100 µM | > 100 µM | > 100 µM |
| OC1CC(O)O[C@H](c2ccccc2)C1 (stereo not given in full) | – | > 100 µM | – | – | – | > 100 µM | – | – | – | – | – | – | – | – | – | > 100 µM | – | > 100 µM | – | > 100 µM |
| O=C1CCc2cc(Br)ccc2O1 | – | > 100 µM | – | > 100 µM | – | > 100 µM | – | > 100 µM | – | > 100 µM | – | > 100 µM | – | – | – | > 100 µM | – | > 100 µM | – | > 100 µM |
| COC(=O)c1cc(O)ccc1O | – | – | – | > 100 µM | – | > 100 µM | – | – | – | > 100 µM | – | > 100 µM | – | > 100 µM | – | > 100 µM | – | > 100 µM | – | – |
| COc1ccc2c(c1)OCC1c3cc(OC)c4ccccc4c3OC21 (stereo not given) | 25 µM | > 100 µM | – | – | 6.06 µM | > 100 µM | 8.82 µM | > 100 µM | 9.95 µM | 67 µM | 12.2 µM | 77.7 µM | 15.9 µM | > 100 µM | 4.44 µM | > 100 µM | 16.5 µM | > 100 µM | 3.89 µM | 16.6 µM |
| COc1cccc(C(=O)NNc2nc(Cl)nc(N3CCN(C(c4ccccc4)c4ccccc4)CC3)n2)c1 | 14.1 µM | 40.2 µM | – | – | 1.9 µM | 3.73 µM | – | – | 1.78 µM | 3.51 µM | 2.14 µM | 5.31 µM | 13.2 µM | 26 µM | 3.26 µM | 12 µM | 1.7 µM | 3.14 µM | 0.852 µM | 4.26 µM |
| CCCCCc1cc(/C=C2/N=C(c3ccc[nH]3)C=C2OC)[nH]c1C | – | 0.959 µM | – | 0.209 µM | – | 1.05 µM | – | 1.06 µM | – | 0.153 µM | – | – | – | 1.13 µM | – | 1.26 µM | – | – | – | – |
| Cn1cc(-c2csc(-c3ccccc3)n2)c2cccnc21 | – | – | 14.1 µM | 33.3 µM | 12.8 µM | 31.7 µM | 14.4 µM | 39.1 µM | 13.6 µM | 28 µM | 18.5 µM | 42.3 µM | 18.7 µM | 43.3 µM | 16 µM | 31 µM | 12.8 µM | 25.4 µM | 9.24 µM | 62.4 µM |
| Cc1cc(S(=O)(=O)Nc2nc3ccccc3c(=O)n2Cc2ccco2)c(S)cc1Cl | 33.1 µM | > 100 µM | 37.4 µM | > 100 µM | 55 µM | > 100 µM | 36.9 µM | > 100 µM | 45.8 µM | > 100 µM | – | – | – | – | 33.3 µM | > 100 µM | 26.1 µM | 59.3 µM | 19.5 µM | 40.7 µM |
| OC1(C(Sc2ccccc2)Sc2ccccc2)CCCCCC1 | – | 85.2 µM | – | 40.7 µM | – | 60.5 µM | – | – | – | 66.2 µM | – | 41.2 µM | – | 53.5 µM | – | 75.5 µM | – | 40 µM | – | 67 µM |
| NNC(=O)/C(NC(=O)c1ccccc1)=C(\N)c1cccc([N+](=O)[O-])c1 | – | > 100 µM | – | > 100 µM | – | > 100 µM | – | – | – | > 100 µM | – | > 100 µM | – | > 100 µM | – | > 100 µM | – | > 100 µM | – | > 100 µM |
